According to patent US20250011298A1, “CRYSTALLINE FORMS OF A CDK9 INHIBITOR AND USES THEREOF” (PRELUDE THERAPEUTICS INCORPORATED, priority 2021, published 2025):

Test: Thermogravimetric analysis (TGA) of crystalline forms
Type: physicochemical
Conditions: TGA thermogram; ramp from 25° C. to 600° C. at 20° C./min, nitrogen purge
Experimental: Crystalline forms of the compound of Formula I were analyzed using a TA Instruments Thermogravimetric Analyzer, TGA Q500 with autosampler. The general experimental conditions for TGA were ramp from 25° C. 600° C. at 20° C./min; nitrogen purge, gas flow at 25 mL/min; platinum sample pan.

Row | TGA: degradation occurring after | Structure (SMILES)
1 | > 176 °C | Cc1cnc(NC(=O)[C@H]2CCC[C@@H](NC(=O)CC#N)C2)cc1-c1cc(F)c2ncn(C(C)C)c2c1 [Form II]
2 | > 176 °C | Cc1cnc(NC(=O)[C@H]2CCC[C@@H](NC(=O)CC#N)C2)cc1-c1cc(F)c2ncn(C(C)C)c2c1 [Form I]
